Measured values taken from ChEMBL document CHEMBL1201862, “PubChem BioAssay data set” (2004).
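Briefly, cells in 96-well plates were exposed to five compound concentrations for 48 h, and endpoints were estimated by linear interpolation. GI50 = concentration required for 50% inhibition of growth.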 Calls of active or inactive are those of the source. No stated cut-off is given here; in the data, active = GI50 up to about 1.1 µM and inactive = higher.

Legend:
Experiment in all cases: DTP human tumour cell line panel, 48 h
HT-29 = tested on: HT-29
SNB-19 = tested on: SNB-19
Malme-3M = tested on: Malme-3M
RPMI-8226 = tested on: RPMI-8226
K562 = tested on: K562
UACC-62 = tested on: UACC-62
U-251 = tested on: U-251
SF-539 = tested on: SF-539
KM12 = tested on: KM12
CAKI-1 = tested on: CAKI-1
UACC-257 = tested on: UACC-257
EKVX = tested on: EKVX
SK-MEL-28 = tested on: SK-MEL-28
MOLT-4 = tested on: MOLT-4
SN12C = tested on: SN12C
NCI-H226 = tested on: NCI-H226
HCT-15 = tested on: HCT-15
HOP-62 = tested on: HOP-62
786-0 = tested on: 786-0
NCI/ADR-RES = tested on: NCI/ADR-RES

| Structure (SMILES) | GI50 (HT-29) | GI50 (SNB-19) | GI50 (Malme-3M) | GI50 (RPMI-8226) | GI50 (K562) | GI50 (UACC-62) | GI50 (U-251) | GI50 (SF-539) | GI50 (KM12) | GI50 (CAKI-1) | GI50 (UACC-257) | GI50 (EKVX) | GI50 (SK-MEL-28) | GI50 (MOLT-4) | GI50 (SN12C) | GI50 (NCI-H226) | GI50 (HCT-15) [µM] | GI50 (HOP-62) | GI50 (786-0) | GI50 (NCI/ADR-RES) |
| --- | --- | --- | --- | --- | --- | --- | --- | --- | --- | --- | --- | --- | --- | --- | --- | --- | --- | --- | --- | --- |
| O=[N+]([O-])c1ccc(COc2cccc3cccnc23)cc1 | 31.6 µM (inactive) | 27.4 µM (inactive) | 33 µM (inactive) | 13 µM (inactive) | 11.3 µM (inactive) | 17.3 µM (inactive) | 10 µM (inactive) | 29.6 µM (inactive) | 23.8 µM (inactive) | 30.3 µM (inactive) | 20.2 µM (inactive) | 18.9 µM (inactive) | 14.8 µM (inactive) | 4.98 µM (inactive) | 22.6 µM (inactive) | 18.7 µM (inactive) | 7.1 | 30 µM (inactive) | 17.2 µM (inactive) | – |
| CCOC(=O)C(COS(C)(=O)=O)(COS(C)(=O)=O)C(=O)OCC | > 100 µM (inactive) | > 100 µM (inactive) | – | – | > 100 µM (inactive) | – | > 100 µM (inactive) | – | > 100 µM (inactive) | – | > 100 µM (inactive) | – | > 100 µM (inactive) | > 100 µM (inactive) | > 100 µM (inactive) | > 100 µM (inactive) | > 100 | – | – | > 100 µM (inactive) |
| CNc1cc(Cl)ccc1C(=O)N1CCC[C@H]1CO | > 100 µM (inactive) | > 100 µM (inactive) | > 100 µM (inactive) | – | – | > 100 µM (inactive) | > 100 µM (inactive) | > 100 µM (inactive) | > 100 µM (inactive) | > 100 µM (inactive) | > 100 µM (inactive) | > 100 µM (inactive) | > 100 µM (inactive) | > 100 µM (inactive) | > 100 µM (inactive) | 78.2 µM (inactive) | > 100 | > 100 µM (inactive) | > 100 µM (inactive) | > 100 µM (inactive) |
| Cn1c2c(c3ccccc31)CCN=C2C1CCCOC1=O (stereo unspecified) | > 100 µM (inactive) | > 100 µM (inactive) | > 100 µM (inactive) | – | – | > 100 µM (inactive) | > 100 µM (inactive) | > 100 µM (inactive) | > 100 µM (inactive) | > 100 µM (inactive) | > 100 µM (inactive) | 88.3 µM (inactive) | > 100 µM (inactive) | – | > 100 µM (inactive) | 11.7 µM (inactive) | > 100 | > 100 µM (inactive) | > 100 µM (inactive) | > 100 µM (inactive) |
| CC(C)=CC(=O)Cc1nc2ccccc2[nH]c1=O | > 100 µM (inactive) | > 100 µM (inactive) | > 100 µM (inactive) | > 100 µM (inactive) | > 100 µM (inactive) | > 100 µM (inactive) | > 100 µM (inactive) | > 100 µM (inactive) | > 100 µM (inactive) | 76.7 µM (inactive) | > 100 µM (inactive) | 47.3 µM (inactive) | > 100 µM (inactive) | > 100 µM (inactive) | > 100 µM (inactive) | > 100 µM (inactive) | > 100 | 76 µM (inactive) | 82.4 µM (inactive) | – |
| Nc1nc(N)c2nc(-c3ccco3)cnc2n1 | 76.7 µM (inactive) | > 100 µM (inactive) | 46.5 µM (inactive) | > 100 µM (inactive) | 33.7 µM (inactive) | 22.4 µM (inactive) | 34.1 µM (inactive) | 38.2 µM (inactive) | 93.5 µM (inactive) | 25 µM (inactive) | 92.7 µM (inactive) | 18.3 µM (inactive) | 92 µM (inactive) | 44.5 µM (inactive) | 85.5 µM (inactive) | > 100 µM (inactive) | > 100 | 35.6 µM (inactive) | 27.1 µM (inactive) | – |
| CCN(CC)Cc1ccc(C(=S)Nc2ccc(Cl)cc2)s1 | 2.91 µM (inactive) | 16.5 µM (inactive) | – | 6.31 µM (inactive) | 1.87 µM (inactive) | 9.57 µM (inactive) | 12 µM (inactive) | 13.9 µM (inactive) | 11.9 µM (inactive) | 12.7 µM (inactive) | 4.81 µM (inactive) | 4.06 µM (inactive) | 6.92 µM (inactive) | 4.54 µM (inactive) | – | – | 10.7 | 16.3 µM (inactive) | 13.1 µM (inactive) | 7.45 µM (inactive) |
| C/C(CCn1[nH]c(=O)ccc1=O)=N\NC(=O)C(=O)NN | > 100 µM (inactive) | > 100 µM (inactive) | > 100 µM (inactive) | > 100 µM (inactive) | > 100 µM (inactive) | > 100 µM (inactive) | – | > 100 µM (inactive) | > 100 µM (inactive) | > 100 µM (inactive) | > 100 µM (inactive) | > 100 µM (inactive) | > 100 µM (inactive) | > 100 µM (inactive) | > 100 µM (inactive) | > 100 µM (inactive) | > 100 | > 100 µM (inactive) | > 100 µM (inactive) | – |
| COc1cc(/N=C(\N)N=C(N)N)c2ncccc2c1 | > 100 µM (inactive) | 50.4 µM (inactive) | 44.7 µM (inactive) | – | – | > 100 µM (inactive) | 38 µM (inactive) | 46.8 µM (inactive) | 45.3 µM (inactive) | > 100 µM (inactive) | > 100 µM (inactive) | > 100 µM (inactive) | > 100 µM (inactive) | – | 62.1 µM (inactive) | 18.7 µM (inactive) | > 100 | > 100 µM (inactive) | 64.6 µM (inactive) | > 100 µM (inactive) |
| C=C(N=[N+]=[N-])c1cn(C2CC(O)C(CO)O2)c(=O)[nH]c1=O (stereo unspecified) | > 100 µM (inactive) | > 100 µM (inactive) | > 100 µM (inactive) | > 100 µM (inactive) | > 100 µM (inactive) | > 100 µM (inactive) | > 100 µM (inactive) | > 100 µM (inactive) | > 100 µM (inactive) | > 100 µM (inactive) | – | > 100 µM (inactive) | > 100 µM (inactive) | > 100 µM (inactive) | > 100 µM (inactive) | > 100 µM (inactive) | > 100 | > 100 µM (inactive) | > 100 µM (inactive) | – |
| COC(=O)/C=C1\SC2(O\C1=N/c1ccccc1)C1CC3CC(C1)CC2C3 (stereo unspecified) | > 100 µM (inactive) | > 100 µM (inactive) | – | > 100 µM (inactive) | > 100 µM (inactive) | > 100 µM (inactive) | > 100 µM (inactive) | > 100 µM (inactive) | > 100 µM (inactive) | > 100 µM (inactive) | > 100 µM (inactive) | > 100 µM (inactive) | > 100 µM (inactive) | > 100 µM (inactive) | > 100 µM (inactive) | > 100 µM (inactive) | > 100 | > 100 µM (inactive) | – | > 100 µM (inactive) |
| COc1ccc(Cc2c3cc(OC)c(OC)cc3cc[n+]2C)cc1 | 13.4 µM (inactive) | 6.81 µM (inactive) | 27.2 µM (inactive) | 24.5 µM (inactive) | 34.4 µM (inactive) | 18.9 µM (inactive) | 13.5 µM (inactive) | 18.7 µM (inactive) | 9.29 µM (inactive) | > 48.3 µM (inactive) | 20.4 µM (inactive) | > 39 µM (inactive) | 32.6 µM (inactive) | > 100 µM (inactive) | 4.93 µM (inactive) | 33.1 µM (inactive) | > 31.3 | > 20.8 µM (inactive) | > 23.8 µM (inactive) | – |
| N#CC(C#N)=C1/C(=C/C=C/C=C/C=C/c2ccc(N3CCCCC3)s2)S(=O)(=O)c2ccccc21 | > 100 µM (inactive) | 45.3 µM (inactive) | – | 36.4 µM (inactive) | > 100 µM (inactive) | > 100 µM (inactive) | 46.7 µM (inactive) | > 100 µM (inactive) | > 100 µM (inactive) | > 100 µM (inactive) | > 100 µM (inactive) | > 100 µM (inactive) | > 100 µM (inactive) | 14.9 µM (inactive) | > 100 µM (inactive) | > 100 µM (inactive) | > 100 | 33.7 µM (inactive) | 93.1 µM (inactive) | > 100 µM (inactive) |
| Cc1ccccc1/N=N/c1c(O)c(S(=O)(=O)O)cc2cc(S(=O)(=O)O)ccc12 | > 100 µM (inactive) | > 100 µM (inactive) | > 100 µM (inactive) | – | > 100 µM (inactive) | > 100 µM (inactive) | > 100 µM (inactive) | > 100 µM (inactive) | > 100 µM (inactive) | > 100 µM (inactive) | > 100 µM (inactive) | > 100 µM (inactive) | > 100 µM (inactive) | > 100 µM (inactive) | > 100 µM (inactive) | > 100 µM (inactive) | > 100 | > 100 µM (inactive) | > 100 µM (inactive) | > 100 µM (inactive) |
| O=Nc1c(-c2c(O)[nH]c3ccc(I)cc23)[nH]c2ccccc12 | 3.48 µM (inactive) | > 29.7 µM (inactive) | – | 1.88 µM (inactive) | – | 2.69 µM (inactive) | 5.62 µM (inactive) | 7.03 µM (inactive) | 0.282 µM (active) | 2.45 µM (inactive) | > 31.5 µM (inactive) | 2.96 µM (inactive) | 4.32 µM (inactive) | – | 3.72 µM (inactive) | – | 3.21 | – | – | 8.2 µM (inactive) |
| COc1ccc(/C=C/c2cc(OC)c(OCc3ccccc3)c(OC)c2)cc1 | 27.9 µM (inactive) | > 100 µM (inactive) | > 100 µM (inactive) | 57.9 µM (inactive) | > 100 µM (inactive) | 77.1 µM (inactive) | > 100 µM (inactive) | > 100 µM (inactive) | > 100 µM (inactive) | > 100 µM (inactive) | 99.1 µM (inactive) | > 100 µM (inactive) | 56.6 µM (inactive) | 29 µM (inactive) | > 100 µM (inactive) | > 100 µM (inactive) | – | > 100 µM (inactive) | > 100 µM (inactive) | – |
